In US11396517B1, “Exo-aza spiro inhibitors of menin-MLL interaction” (Janssen Pharmaceutica NV, priority 2017, dated 2022):
Read-outs that look alike come from different tables or passages of the source.

Legend:
MV-4-11 = assay: Proliferation assay B (spheroid assay) MV-4-11; format: cell-based, human; settings: Homo sapiens, MV4-11, 192 h, MV-4-11 cells, confluence at day 8, absolute IC50; read-out: (3b) Spheroid assay MV-4--11 (IC50(μM)) Assay B
Outline: (§1)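 IC50 derived from % effect on day-8 imaged confluence, scaled between DMSO-treated cells (high) and 1 μM staurosporine (low), using a variable-slope fit constrained 0-100%. Cells seeded as spheroids in ultra-low-attachment plates and exposed to compound for 8 days, 0.3% DMSO.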

MOLM14 = assay: Proliferation assay B (spheroid assay) MOLM14; format: cell-based, human; settings: MOLM14 cells, confluence at day 8, absolute IC50, read-out: (3b) Spheroid assay MOLM14 (IC50(μM)) Assay B
Outline: as §1

menin = biological target: T1, menin (Homo sapiens, UniProt O00255, T541A); assay: Menin/MLL homogenous time-resolved fluorescence (HTRF) assay; format: binding; settings: location 2; read-out: (2) location 2 Menin HTRF assay (IC50 (nM))
T1 construct: Menin (a.a. 1-610-6×his tag)
T1 sequence (O00255 with tags, fused parts or gaps T541A): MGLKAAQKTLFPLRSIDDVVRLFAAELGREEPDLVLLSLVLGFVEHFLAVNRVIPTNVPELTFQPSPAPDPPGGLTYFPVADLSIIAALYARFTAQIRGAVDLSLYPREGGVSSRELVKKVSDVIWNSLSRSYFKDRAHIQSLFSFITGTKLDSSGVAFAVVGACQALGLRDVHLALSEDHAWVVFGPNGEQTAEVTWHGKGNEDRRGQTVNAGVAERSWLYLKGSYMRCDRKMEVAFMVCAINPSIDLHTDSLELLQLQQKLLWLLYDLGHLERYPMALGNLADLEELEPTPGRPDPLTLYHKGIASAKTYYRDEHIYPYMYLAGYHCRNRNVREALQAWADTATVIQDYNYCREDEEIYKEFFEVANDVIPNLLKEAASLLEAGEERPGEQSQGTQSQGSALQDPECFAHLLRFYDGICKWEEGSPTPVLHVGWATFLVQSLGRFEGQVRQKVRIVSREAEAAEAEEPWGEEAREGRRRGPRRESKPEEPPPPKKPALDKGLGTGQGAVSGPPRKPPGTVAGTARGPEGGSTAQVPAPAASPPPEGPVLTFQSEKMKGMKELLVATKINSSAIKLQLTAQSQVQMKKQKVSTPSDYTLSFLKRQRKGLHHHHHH
Outline: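 Displacement of 75 nM FITC-MBM1 from terbium-cryptate-labeled His-tagged menin 1-610 ([…]) was read as the 520/490 nm HTRF ratio. Compound (11-point, 3-fold series) got 5 min with menin before peptide, then 15 min at ambient; 0.5% DMSO, Tris pH 7.5.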

Compound | IC50 (MV-4-11) | IC50 (MOLM14; Homo sapiens, MOLM-14, 192 h) | IC50 (menin) | IC50 (MOLM14)
FC(F)(F)Cc1cc2c(N3CCC4(CC(Nc5ccc6cc[nH]c6c5)C4)C3)ncnc2s1 (mixture of isomers) [Compound 311] | 2.62 µM | > 3.75 µM | 70.5 nM | –
O=c1[nH]c2cc(CNC3CCC4(C3)CN(c3ncnc5sc(CC(F)(F)F)cc35)C4)ccc2o1 (single isomer, unassigned) [Compound 58] | 0.11 µM | 0.2 µM | 2.9 nM | –
Cn1c(=O)[nH]c2cc(CNC3CCC4(C3)CN(c3ncnc5sc(CC(F)(F)F)cc35)C4)ccc21 (stereo not drawn) [Compound 54] | 0.26 µM | 1.05 µM | 1.8 nM | –
CNC(=O)c1ccc(NC2CC3(CCN(c4ncnc5sc(CC(F)(F)F)cc45)C3)C2)cc1 (stereo not drawn) [Compound 93] | 0.16 µM | – | 5.8 nM | 0.62 µM
